Data taken from US20030032587A1, “Urocortin peptides” (The Salk Institute for Biological Studies, priority 1995, published 2003).
Read-outs that look alike come from different tables or passages of the source. Where no end group is shown, it is not given here.

What was measured:
[1] = test system: primary murine anterior pituitary cells; format: cell-based; settings: for EC50: read-out: EC50, secretion of ACTH
Description: A straightforward assay using rat anterior pituitary cells in monolayer culture can be carried out to determine whether a candidate peptide thereof will function as a CRF agonist and stimulate ACTH secretion by activating CRF receptors on such cells. The procedure which is used is that generally set forth in Endocrinology, 91, supra. A very similar assay is used to test for antagonistic properties, using a challenge dose of oCRF or the like.
To test the ability of purified Ucn or another candidate Ucn-like peptide to function as a CRF agonist and to promote ACTH production and/or secretion, cultures of dispersed primary murine anterior pituitary cells (0.15×10^6 cells/well are used), as generally described in Vale et al. Meth. Enzym., 103, 565-577 (1983), and in Endocrinology, 91, 562 (1972). These cultures are maintained in 0.5 ml/well of β-PJ (a reagent available from Kansas City Biochemicals) containing 2% fetal bovine serum. On the morning of culture day 5, the cells are washed 3 times with β-PJ containing 0.1% bovine serum albumin and then incubated for 1 hour at 37° C. in the same medium. The medium is then replaced with Ucn, or an analog thereof, diluted in β-PJ containing 0.1% bovine serum albumin. Incubations are terminated after 3 hours, at which time the medium is removed and stored at −20° C. until ACTH radioimmunoassays are performed using a suitable kit, such as that commercially available from Diagnostic Products Corporation of Los Angeles, Calif. Secreted ACTH is measured using Allfit computer program with results expressed as the average±s.e.m. of 3 replicate bioassays.

human CRF-R2β = assay: competitive displacement binding assay, CRF-R2β stably expressed in CHO cells; settings: read-out: Ki (95% confidence limits); CRF-R2β in stably transfected CHO cells; displacement of [125I-Tyr0]Ucn
Method: Binding assays with cells expressing human CRF-R1 are carried out as described in the Chen et al. P.N.A.S., supra. The affinities of test peptides for CRF-R1 and CRF-R2β stably expressed in CHO cells were determined by competitive displacement of ^125I-(Nle^21, Tyr^32) ovine CRF (for CRF-R1) or of [^125II-Tyr^∘]Ucn (for CRF-R2β) as described.

murine CRF-R2β = target: T1, murine CRF-R2β (Mus musculus, UniProt Q60748); assay: elevation of intracellular cAMP in cells expressing mCRF-R2β; format: cell-based; settings: read-out: ED50, elevation of cAMP
T1 construct: expressed in transfected cells
Description: CRF-R is used to refer to a family of receptor protein subtypes which participate in the G-protein-coupled response of cells to CRF and Ucn-like ligands. CRF-Rs are coupled by heterotrimeric G-proteins to various intracellular enzymes, ion channels, and transporters. The G-proteins associate with the receptor proteins at the intracellular face of the plasma membrane. An agonist binding to a CRF-R catalyzes the exchanges of GTP for GDP on the α-subunit (G-protein “activation”), resulting in its dissociation and stimulation of one (or more) of the various signal-transducing enzymes and channels. G-protein preferentially stimulates particular effectors, and the specificity of signal transduction may be determined, therefore, by the specificity of G-protein/receptor interaction. CRF-R proteins mediate signal transduction through the modulation of adenylate cyclase and perhaps through PI turnover. For example, when CRF or Ucn binds to and activates the CRF-R, adenylate cyclase causes an elevation in the level of intracellular cAMP. […] Such transformed cells are monitored for either an increase or decrease in the level of intracellular CAMP which provides a determination of the effectiveness of the potential agonist or antagonist. Methods for measuring intracellular levels of cAMP, or measuring cyclase activity, are well known in the art.

rats [2] = assay: fall in mean arterial blood pressure after peripheral (iv) administration; format: in vivo
rats [3] = assay: ACTH secretion in vivo, ACTH level in plasma
[4] = target: T2, human CRF binding protein (hCRF-BP) (Homo sapiens, UniProt P24387); assay: competitive hCRF-BP ligand binding assay; settings: radioligand 125I[Nle21,Tyr32]-oCRF
T2 construct: made in house; host or cells: recombinant CHO cells, conditioned medium
T2 sequence (P24387 25-322): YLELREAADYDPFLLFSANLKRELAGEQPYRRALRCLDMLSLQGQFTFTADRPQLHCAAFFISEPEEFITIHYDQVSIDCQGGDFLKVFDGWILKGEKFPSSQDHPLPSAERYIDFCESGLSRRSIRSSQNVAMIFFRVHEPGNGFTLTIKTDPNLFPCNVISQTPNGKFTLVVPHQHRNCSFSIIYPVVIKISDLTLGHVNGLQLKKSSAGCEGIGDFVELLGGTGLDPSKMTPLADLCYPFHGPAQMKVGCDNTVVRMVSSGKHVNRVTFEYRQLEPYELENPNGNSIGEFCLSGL

[5] = target: human CRF-R2β, stably transfected CHO cells (human) (UniProt Q13324); assay: competitive displacement of [125I-Tyr0]Ucn from stably transfected CHO cells expressing human CRF-R2β; 95% confidence limits in brackets
[6] = target: CRF receptors on anterior pituitary cells in culture; assay: cell-based or functional assay
[7] = target: CRF receptors on anterior pituitary cells in culture; assay: cell-based or functional assay; remark: listed apart in the source
[8] = target: T3, human CRF binding protein (human, UniProt P24387 25-322); assay: competitive hCRF-BP ligand binding assay with 125I[Nle21,Tyr32]-oCRF
T3 construct: also called hCRF-BP; CRF-BP
T3 sequence (looked up): T2 sequence (P24387 25-322)

[9] = target: T4, human CRF-R1 (cloned hCRF-R1), stably expressed in CHO cells (human, UniProt P34998 24-415); assay: competitive displacement of 125I-(Nle21,Tyr32) ovine CRF from CHO cells stably expressing hCRF-R1; LIGAND program, 95% confidence limits in brackets
T4 construct: whole, on cells; also called hCRF-RA
T4 sequence (looked up): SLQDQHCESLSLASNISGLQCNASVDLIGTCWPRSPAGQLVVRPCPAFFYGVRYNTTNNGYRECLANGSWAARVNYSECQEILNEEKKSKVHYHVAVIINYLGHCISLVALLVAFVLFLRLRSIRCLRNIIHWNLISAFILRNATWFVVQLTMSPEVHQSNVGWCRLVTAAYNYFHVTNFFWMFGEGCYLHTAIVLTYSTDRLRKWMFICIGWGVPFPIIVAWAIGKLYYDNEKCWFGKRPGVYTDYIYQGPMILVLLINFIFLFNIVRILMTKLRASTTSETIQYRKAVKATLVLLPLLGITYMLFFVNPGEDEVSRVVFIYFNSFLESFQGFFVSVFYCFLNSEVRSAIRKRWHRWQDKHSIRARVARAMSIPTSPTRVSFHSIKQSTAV
Method: Binding assays with cells expressing human CRF-R1 are carried out as described in the Chen et al. P.N.A.S., supra.

[10] = target: T3, human CRF binding protein; assay: competitive hCRF-BP ligand binding assay with [125I-DTyr0]hCRF; reference peptide
Method: After incubating with the primary and secondary antisera for 30 minutes each, 1 ml of saline wash is added, and the test tubes are centrifuged at 2000× g for 20 minutes at 4° C. Precipitates are counted in a gamma counter. Inhibitory binding affinity constant (Kᵢ) values are determined using parameters calculated by the LIGAND computer program, Munson et al., Anal. Biochem., 107, 220 (1980), and a Vax/VMS computer system.

T1 sequence (Q60748 1-431 isoform Q60748-2): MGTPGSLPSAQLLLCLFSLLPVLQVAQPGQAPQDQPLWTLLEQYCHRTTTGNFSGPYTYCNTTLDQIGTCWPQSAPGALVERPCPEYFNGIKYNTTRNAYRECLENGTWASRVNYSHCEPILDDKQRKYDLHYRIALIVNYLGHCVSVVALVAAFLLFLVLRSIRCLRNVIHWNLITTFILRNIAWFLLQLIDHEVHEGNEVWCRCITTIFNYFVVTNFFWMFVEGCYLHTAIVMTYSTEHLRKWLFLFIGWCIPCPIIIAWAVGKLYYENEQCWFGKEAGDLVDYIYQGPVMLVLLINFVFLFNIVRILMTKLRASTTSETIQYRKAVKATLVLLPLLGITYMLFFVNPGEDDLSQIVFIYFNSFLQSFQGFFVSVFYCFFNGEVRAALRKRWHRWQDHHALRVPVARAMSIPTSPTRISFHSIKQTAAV

Molecule: H-NDDPPISIDLTFHLLRNMIEMARIENEREQAGLNRKYLDEV-NH2 [sfUI, reference compound]
- EC50 ([1]; cultured rodent pituitary cells, no unit printed for this value): 0.017 ± 0.003 nM
- Ki (human CRF-R2β): 3 nM
- EC50 (murine CRF-R2β): 0.74 nM

Molecule: CC[C@H](C)[C@H](NC(=O)[C@H](CO)NC(=O)[C@H](CC(C)C)NC(=O)[C@@H]1CCCN1C(=O)[C@@H]1CCCN1C(=O)[C@H](CC(=O)O)NC(=O)[C@@H](N)CC(=O)O)C(=O)N[C@@H](CC(=O)O)C(=O)N[C@@H](CC(C)C)C(=O)N[C@H](C(=O)N[C@@H](Cc1ccccc1)C(=O)N[C@@H](Cc1c[nH]cn1)C(=O)N[C@@H](CC(C)C)C(=O)N[C@@H](CC(C)C)C(=O)N[C@@H](CCCNC(=N)N)C(=O)N[C@H](C(=O)N[C@@H](CC(C)C)C(=O)N[C@@H](CC(C)C)C(=O)N[C@@H](CCC(=O)O)C(=O)N[C@@H](CC(C)C)C(=O)N[C@@H](C)C(=O)N[C@@H](CCCNC(=N)N)C(=O)N[C@H](C(=O)N[C@@H](CCC(N)=O)C(=O)N[C@@H](CO)C(=O)N[C@@H](CCC(N)=O)C(=O)N[C@@H](CCCNC(=N)N)C(=O)N[C@@H](CCC(=O)O)C(=O)N[C@@H](CCCNC(=N)N)C(=O)N[C@@H](C)C(=O)N[C@@H](CCC(=O)O)C(=O)N[C@@H](CCC(N)=O)C(=O)N[C@@H](CC(N)=O)C(=O)N[C@@H](CCCNC(=N)N)C(=O)N[C@H](C(=O)N[C@H](C(=O)N[C@@H](Cc1ccccc1)C(=O)N[C@@H](CC(=O)O)C(=O)N[C@@H](CO)C(=O)N[C@H](C(N)=O)C(C)C)[C@@H](C)CC)[C@@H](C)CC)[C@@H](C)O)[C@@H](C)O)[C@@H](C)O [rUcn]
- fall in mean arterial blood pressure (rats [2]; administered peripherally, e.g. iv, dose as low as 250 ng for a rat of about 250 to 275 grams): marked fall
- lowers blood pressure, times as much as either sfUI or r/hCRF (rats [2]; dose of about 3.77 μg/kg): 2-3 times
- biopotency for ACTH secretion compared with oCRF ([1]; cultured rodent pituitary cells): more potent than oCRF
- stimulates the secretion of ACTH and β-END-LI (β-endorphin) ([1]; result in words): strongly stimulates
- Ki (human CRF-R2β): 0.41 nM
- EC50 (murine CRF-R2β): 0.18 ± 0.04 nM
- ACTH level in plasma (rats [3]; 1 μg/kg dose, at 30 minutes): 659 ± 53 pg/mL
- ACTH level in plasma, effect compared with r/hCRF (rats [3]; at 1 hour and at 2 hours): greater effect continues
- binding to hCRF-BP compared with sauvagine and sfUI [4]: much more strongly than does sauvagine, but less strongly than sfUI
- binds hCRF-BP more strongly than r/hCRF, factor [4]: about 2

Molecule: rat urocortin (rat Ucn) (peptide)
- Ki [5]: 0.41 nM

Molecule: [Tyr0]rUcn(1-40) (peptide)
- ACTH secretion, anterior pituitary cell cultures, potency relative to r/hCRF [6]: 2.2 times r/hCRF

Molecule: CC[C@H](C)[C@H](NC(=O)[C@@H](NC(=O)[C@H](CC(=O)O)NC(=O)[C@H](CC(C)C)NC(=O)[C@H](CC(C)C)NC(=O)[C@H](CC(C)C)NC(=O)[C@H](CCCNC(=N)N)NC(=O)[C@H](CC(N)=O)NC(=O)[C@H](CC(N)=O)NC(=O)[C@H](C)NC(=O)[C@H](C)NC(=O)[C@H](CCC(N)=O)NC(=O)[C@H](CCC(N)=O)NC(=O)[C@H](CCCCN)NC(=O)[C@H](CCC(=O)O)NC(=O)[C@H](CCCCN)NC(=O)[C@H](CCC(=O)O)NC(=O)[C@H](CCC(N)=O)NC(=O)[C@H](CCCCN)NC(=O)[C@H](CCC(=O)O)NC(=O)[C@@H](NC(=O)[C@H](CCC(=O)O)NC(=O)[C@@H](NC(=O)[C@H](CCSC)NC(=O)[C@H](CCCCN)NC(=O)[C@H](CCCNC(=N)N)NC(=O)[C@H](CC(C)C)NC(=O)[C@H](CC(C)C)NC(=O)[C@H](CCC(=O)O)NC(=O)[C@H](CC(C)C)NC(=O)[C@H](CO)NC(=O)[C@H](CC(C)C)NC(=O)[C@H](CC(=O)O)NC(=O)[C@@H](NC(=O)[C@H](CO)NC(=O)[C@@H](NC(=O)[C@@H]1CCCN1C(=O)[C@@H]1CCCN1C(=O)CNC(=O)[C@@H]1CCC(=O)N1)[C@@H](C)CC)[C@@H](C)CC)[C@@H](C)CC)[C@@H](C)CC)[C@@H](C)O)C(N)=O [sauvagine, reference compound]
- EC50 ([1]; cultured rodent pituitary cells, incubation 3 hours, average±s.e.m.): ~0.033 nM
- Ki (human CRF-R2β): 2 nM

B1: rat/human CRF (peptide)
peptide: SEEPPISLDLTFHLLREVLEMARAEQLAQQAHSNRKLMEII-NH2
notes: also called r/hCRF; rCRF
- EC50, secretion of ACTH in cultured rodent pituitary cells [7]: 0.043 nM
- binding result [8]: binds

B2: suckerfish urotensin I (peptide)
peptide: NDDPPISIDLTFHLLRNMIEMARIENEREQAGLNRKYLDEV-NH2
notes: also called sfUI; suckerfishUI
- Ki [5]: 3 nM
- binding result [8]: binds
- Ki [9]: ~0.43 nM

B3: hCRF(9-33) (peptide)
peptide: DLTFHLLREVLEMARAEQLAQQAHS
- binding result [10]: binds
